Consider one compound from patent US12479866B2, “Boron-containing rho kinase inhibitors” (Percipiad, Inc., priority 2019, dated 2025).

One series deals with HEK293 cells. Briefly: CellTiter-Glo Luminescent Cell Viability Assay. Particulars: HEK293 cells, 25, 2.5, or 0.25 μM, two days.
A further series has as its target AKT1 (Homo sapiens (Human), UniProt P31749). Briefly: AGC Kinase Selectivity Profiling (ADP-Glo). In kind it is biochemical. Particulars: 1 μM compound; AGC Panel; read-out: Percent enzyme activity inhibition, AKT1. From the text: ROCK1 (also called ROCK I, ROKβ, Rho-kinase β, or p160ROCK) and ROCK2 ((also known as ROCK II, ROKα, or Rho kinase) belong to AGC family of serine/threonine kinases. The group of AGC kinases consists of 63 evolutionarily related serine/threonine protein kinases comprising PDK1, PKB/Akt, SGK, PKC, PRK/PKN, MSK, RSK, S6K, PKA, PKG, DMPK, MRCK, ROCK, NDR, LATS, CRIK, MAST, GRK, Sgk494, and YANK, while two other families, Aurora and PLK, are the most closely related to the group (Leroux et al., AGC kinases, mechanisms of regulation and innovative drug development, Semin Cancer Biol. 2018 February; 48:1-17).

A further series has as its system primary hTM cells. The series can be described thus: RealTime-Glo MT cell viability assay in hTM cells. Particulars: all concentrations and time points (24 h, 48 h, 72 h). The format is cell-based. From the text: Commercially available RealTime-Glo™ MT cell viability (Promega, catalog #G9712) and CellTox™ Green cytotoxicity (Promega, catalog #G8731) assays were used in assessing effect of compounds on primary hTM cell viability and cytotoxicity. The RealTime-Glo™ MT cell viability assay is a nonlytic, homogeneous, bioluminescent method that determines the number of viable cells in culture by measuring the reducing potential of cells and thus metabolism (MT). Viable cells reduce the proprietary pro-substrate to generate a substrate for NanoLuc® luciferase. This substrate diffuses from cells into the surrounding culture medium, where it is rapidly used by the NanoLuc® Enzyme to produce a luminescent signal. In a contrasting and complementary manner, CellTox™ Green cytotoxicity assay measures changes in membrane integrity that occur as a result of cell death. This assay system uses a proprietary asymmetric cyanine dye that is excluded from viable cells but preferentially stains the dead cells' DNA. The fluorescent signal produced by the dye binding to the dead-cell DNA is proportional to cytotoxicity.
Human™ cells were cultured and maintained as described in Example 12. Fifty μl cells (600 cells) in culture media containing compound, 25 μl media with RealTime-Glo™ MT cell viability assay reagent and 25 μl media with CellTox™ Green cytotoxicity assay reagent were plated in black, clear bottom 96-well plates. Light emitted by luciferase and fluorescence emitted by dye binding to DNA (excitation 485 nm and emission 525 nm) were measured at 24 h, 48 h, and 72 h after incubation using plate based luminescence and fluorescence plate readers.

Series [1] addresses PKA-NanoLuc fusion protein (Homo sapiens (Human), UniProt P17612). The series can be described thus: PKA-NanoBRET Target Engagement Intracellular Kinase Assay in HEK293 cells. The conditions noted are these: live HEK293 cells, 2 hours; read-out: Estimated IC50, inhibition of NanoBRET tracer binding to PKA. The format is cell-based. The protocol:
NanoBRET™ TE assay is based on the NanoBRET™ System, an energy transfer technique designed to measure molecular proximity in living cells. The NanoBRET™ TE assay measures the apparent affinity of test compounds by competitive displacement of the NanoBRET™ tracer, reversibly bound to a NanoLuc® luciferase-kinase fusions in cells. Using the NanoBRET™ TE Kinase Assay, a fixed concentration of tracer is added to cells expressing the desired NanoLuc® kinase fusion to generate a BRET signal. […] Centrifuged culture, resuspended cells in fresh culture media, and dispense 85 ul in to wells of 96-well plate. • 3. […] Added 10 μl of 10× serially diluted inhibitor compound per well containing cells with IX NanoBRET Tracer Reagent. Thoroughly mixed plate on an orbital shaker for 15 seconds at 700 rpm. • 5. […] Equilibrated plate to room temperature for ˜15 minutes. • 6. […] Measured donor emission wavelength (450 nm) and acceptor emission wavelength (610 nm) using the GloMax® Discover System (Promega). To generate raw BRET ratio values, divided the acceptor emission value (610 nm) by the donor emission value (450 nm) for each sample.

The next series has as its target ROCK2 (Homo sapiens (Human), UniProt O75116). Briefly: ROCK2 ADP-Glo kinase enzyme inhibition assay. The format is biochemical. Particulars: Exp #3; read-out: ROCK2 IC50(Exp #3). As to the method: We measured ROCK and PKA kinase enzyme activity inhibition by compounds using commercially available ROCK1 (Promega Corporation, cat #V9581), ROCK2 (Promega, cat #V4045), and PKA kinase (Promega, cat #V4247) ADP-Glo™ assay kits. ADP-Glo™ Kinase Assay is a luminescent ADP detection assay that provides a homogeneous method to measure kinase activity by quantifying the amount of ADP produced during a kinase reaction. The assay is performed in two steps. First, after the kinase reaction, an equal volume of ADP-Glo™ Reagent is added to terminate the kinase reaction and deplete the remaining ATP. Second, the Kinase Detection Reagent is added to simultaneously convert ADP to ATP and allow the newly synthesized ATP to be measured using a luciferase/luciferin reaction. The light generated is measured using a luminometer. A complete protocol is included with the kits and is also available at the Promega website. The assay is briefly described below. • 1. Diluted enzyme, substrate, ATP, and compounds (inhibitors) in Kinase Buffer (40 mM Tris, 7.5, 20 mM MgCl2, 0.1 mg/ml BSA, 50 μM DTT). • 2. Added 1 μl of inhibitor, 2 μl of enzyme and 2 μl of substrate/ATP mix to the wells of 384-well low volume nonbinding assay plate A series of three-fold dilution of inhibitor was prepared and assayed for each inhibitor. • 3. Incubated at room temperature for 60 minutes. • 4. Added 5 μl of ADP-Glo™ Reagent. • 5. Incubated at room temperature for 60 minutes. • 6. Added 10 μl of Kinase Detection Reagent • 7. Incubated at room temperature for 30 minutes.
Recorded luminescence (Integration time 1 second) using a plate-based luminometer.
Calculated Percent Enzyme Activity: First subtract the signal of the negative control (no enzyme and no inhibitor) from each sample's signal. Then use the mean relative light units (RLU) values for the 0% kinase activity (neither inhibitor nor enzyme) and the 100% kinase activity (no compound) to calculate the other percent enzyme activities remaining in the presence of the different dilutions of inhibitor.
Inhibitor stock solutions of 10 mM are made in DMSO and stored at −20° C. Dilutions were made in assay buffer immediately before use.

The target in another series is CDK2/CyclinE1 (Homo sapiens (Human), UniProt P24941). Briefly: Kinase Selectivity Profiling General Panel (ADP-Glo). Particulars: 1 μM compound, read-out: Percent enzyme activity inhibition, CDK2/CyclinE1. In kind it is biochemical. As to the method: After this incubation, 5 μl of ADP-Glo™ reagent was added to 5 μl reaction and incubated for 40 minutes. Then, 10 μl of Kinase Detection Reagent added to all assay wells in the assay plate and incubated at room temperature for 30 minutes.

Sequence of AKT1 (P31749 whole entry): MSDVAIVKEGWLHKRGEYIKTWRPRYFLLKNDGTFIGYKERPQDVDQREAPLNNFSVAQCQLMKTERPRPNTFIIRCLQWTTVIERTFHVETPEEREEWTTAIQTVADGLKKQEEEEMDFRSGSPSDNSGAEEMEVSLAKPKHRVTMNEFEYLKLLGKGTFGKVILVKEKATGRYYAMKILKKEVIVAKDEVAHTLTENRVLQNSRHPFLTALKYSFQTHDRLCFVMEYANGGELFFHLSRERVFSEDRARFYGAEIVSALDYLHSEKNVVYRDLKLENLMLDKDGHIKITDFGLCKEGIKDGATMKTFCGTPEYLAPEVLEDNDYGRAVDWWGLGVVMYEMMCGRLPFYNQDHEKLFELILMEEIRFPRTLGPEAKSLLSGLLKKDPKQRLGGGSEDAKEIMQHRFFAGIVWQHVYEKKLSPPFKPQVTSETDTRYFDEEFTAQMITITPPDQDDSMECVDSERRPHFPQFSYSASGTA
Sequence of ROCK2 (O75116 whole entry): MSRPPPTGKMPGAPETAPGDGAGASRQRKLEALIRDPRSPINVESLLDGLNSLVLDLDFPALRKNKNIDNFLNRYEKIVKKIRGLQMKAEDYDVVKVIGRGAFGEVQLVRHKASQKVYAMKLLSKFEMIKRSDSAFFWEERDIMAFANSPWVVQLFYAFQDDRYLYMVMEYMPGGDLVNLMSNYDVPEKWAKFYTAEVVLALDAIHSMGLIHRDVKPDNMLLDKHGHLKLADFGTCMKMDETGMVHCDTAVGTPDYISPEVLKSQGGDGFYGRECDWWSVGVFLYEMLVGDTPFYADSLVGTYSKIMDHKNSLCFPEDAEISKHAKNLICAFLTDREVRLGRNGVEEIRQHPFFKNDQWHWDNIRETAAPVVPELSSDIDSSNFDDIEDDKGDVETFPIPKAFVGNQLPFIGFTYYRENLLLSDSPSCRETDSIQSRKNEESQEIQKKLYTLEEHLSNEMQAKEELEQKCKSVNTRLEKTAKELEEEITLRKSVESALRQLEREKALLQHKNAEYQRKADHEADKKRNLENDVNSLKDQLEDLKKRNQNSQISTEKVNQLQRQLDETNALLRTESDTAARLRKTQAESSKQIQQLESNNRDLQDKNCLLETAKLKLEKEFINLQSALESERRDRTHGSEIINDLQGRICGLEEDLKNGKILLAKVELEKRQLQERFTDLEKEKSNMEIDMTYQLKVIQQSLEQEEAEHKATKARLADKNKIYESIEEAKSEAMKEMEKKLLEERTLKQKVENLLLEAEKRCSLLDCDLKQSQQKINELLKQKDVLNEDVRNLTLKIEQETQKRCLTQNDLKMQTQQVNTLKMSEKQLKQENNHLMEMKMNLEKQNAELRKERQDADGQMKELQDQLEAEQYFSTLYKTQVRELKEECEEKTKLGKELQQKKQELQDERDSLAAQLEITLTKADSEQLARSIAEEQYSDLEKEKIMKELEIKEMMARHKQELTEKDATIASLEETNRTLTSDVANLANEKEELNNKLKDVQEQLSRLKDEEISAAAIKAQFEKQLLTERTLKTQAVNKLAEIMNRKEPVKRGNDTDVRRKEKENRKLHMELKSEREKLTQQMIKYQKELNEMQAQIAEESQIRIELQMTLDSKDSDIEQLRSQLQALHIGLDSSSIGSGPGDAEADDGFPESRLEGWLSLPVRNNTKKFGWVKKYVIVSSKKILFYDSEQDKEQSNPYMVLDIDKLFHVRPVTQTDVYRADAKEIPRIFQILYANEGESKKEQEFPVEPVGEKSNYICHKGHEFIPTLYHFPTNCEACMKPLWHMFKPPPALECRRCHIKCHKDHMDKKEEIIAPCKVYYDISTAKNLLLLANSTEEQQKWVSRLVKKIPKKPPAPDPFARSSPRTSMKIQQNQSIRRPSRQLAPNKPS

Turning to `Cl.Cl.NCC(C(=O)Nc1ccc2cnccc2c1)c1ccc(B(O)O)cc1` (stereo not drawn) [Compound 10•2HCl], the “Cell viability (ATP amount)” value in the series with HEK293 cells was “same amount of ATP as cells without inhibitor”. In addition, the inhibition at 1 µM was determined as 52% on AKT1 and 11% on CDK2/CyclinE1. Further, the “Effect on viability (in words)” value with primary hTM cells is given as “no effect on viability or membrane integrity”. Moreover, the IC50 was 1420 nM in series [1] and 28 nM on ROCK2.
